Test results from US9402842B2, “Synthesis and use of dual tyrosyl-DNA phosphodiesterase I (Tdp1)—topoisomerase I (Top1) inhibitors” (Purdue Research Foundation, priority 2012, dated 2016).
Where a name gives a salt, the structure may show the parent alone. Read-outs that look alike come from different tables or passages of the source.

Assays:
[1] = system: all human cancer cell lines successfully tested; experiment: NCI screen, mean graph midpoint (MGM) for growth inhibition; format: cell-based; conditions: for GI50: read-out: MGM GI50
human recombinant Top1 = human recombinant Top1 (Homo sapiens (Human), UniProt P11387); experiment: Topoisomerase I-mediated DNA cleavage reactions; design: Top1 inhibition (text of part A): key to the marks not given beside the values; conditions: for Top1, compound-induced DNA cleavage due to Top1 inhibition: semiquantitative scale relative to 1 μM camptothecin (90) or MJ-III-65 (91)
recombinant human Tdp1 = recombinant human Tdp1 (Homo sapiens (Human), UniProt Q9NUW8); experiment: Gel-based assay measuring the inhibition of recombinant Tdp1; format: biochemical; conditions: for IC50: read-out: Tdp1 (semiquantitative IC50 scale)
Procedure: Tdp1 inhibitory activity was measured by the drug's ability to inhibit the hydrolysis of the phosphodiester linkage between tyrosine and the 3′-end of the DNA substrate, and to prevent the generation of an oligonucleotide with a free 3′-phosphate (N14P). Therefore, the disappearance of the gel band for N14P indicated Tdp1 inhibition.
Gel-based Assay Measuring the Inhibition of Recombinant Tdp1.
A 5′-[^32P]-labeled single-stranded DNA oligonucleotide containing a 3′-phosphotyrosine (N14Y) was generated as described by Dexheimer et al. The DNA substrate was then incubated with 5 pM recombinant Tdp1 in the absence or presence of inhibitor for 15 min at room temperature in a buffer containing 50 mM Tris HCl, pH 7.5, 80 mM KCl, 2 mM EDTA, 1 mM DTT, 40 μg/ml BSA and 0.01% Tween-20. […] Gel images were scanned using a Typhoon 8600 (GE Healthcare) and densitometric analyses were performed using the ImageQuant software (GE Healthcare).

HOP-62 = experiment: NCI screen cytotoxicity, lung HOP-62; conditions: read-out: Cytotoxicity (GI50 in μM) lung HOP-62; 50% growth inhibition
HCT-116 = experiment: NCI screen cytotoxicity, colon HCT-116; conditions: read-out: Cytotoxicity (GI50 in μM) colon HCT-116; 50% growth inhibition
UACC-62 = experiment: NCI screen cytotoxicity, melanoma UACC-62; conditions: read-out: Cytotoxicity (GI50 in μM) melanoma UACC-62; 50% growth inhibition
SN12C = experiment: NCI screen cytotoxicity, renal SN12C; conditions: read-out: Cytotoxicity (GI50 in μM) renal SN12C; 50% growth inhibition
OVCAR-3 = experiment: NCI screen cytotoxicity, ovarian OVCAR-3; conditions: read-out: Cytotoxicity (GI50 in μM) ovarian OVCAR-3; 50% growth inhibition
SF-539 = experiment: NCI screen cytotoxicity, CNS SF-539; conditions: read-out: Cytotoxicity (GI50 in μM) CNS SF-539; 50% growth inhibition
MDA-MB-435 = experiment: NCI screen cytotoxicity, breast MDA-MB-435; conditions: read-out: Cytotoxicity (GI50 in μM) breast MDA-MB-435; 50% growth inhibition
DU-145 = experiment: NCI screen cytotoxicity, prostate DU-145; conditions: read-out: Cytotoxicity (GI50 in μM) prostate DU-145; 50% growth inhibition
[2] = system: single-stranded DNA substrate; experiment: Surface plasmon resonance, binding to single-stranded DNA substrate; conditions: SPR
[3] = Homo sapiens, read-out: MGM (μM)
[4] = mean graph midpoint for growth inhibition of all human cancer cell lines successfully tested, read-out: MGM

Sequence of human recombinant Top1 (P11387 whole entry): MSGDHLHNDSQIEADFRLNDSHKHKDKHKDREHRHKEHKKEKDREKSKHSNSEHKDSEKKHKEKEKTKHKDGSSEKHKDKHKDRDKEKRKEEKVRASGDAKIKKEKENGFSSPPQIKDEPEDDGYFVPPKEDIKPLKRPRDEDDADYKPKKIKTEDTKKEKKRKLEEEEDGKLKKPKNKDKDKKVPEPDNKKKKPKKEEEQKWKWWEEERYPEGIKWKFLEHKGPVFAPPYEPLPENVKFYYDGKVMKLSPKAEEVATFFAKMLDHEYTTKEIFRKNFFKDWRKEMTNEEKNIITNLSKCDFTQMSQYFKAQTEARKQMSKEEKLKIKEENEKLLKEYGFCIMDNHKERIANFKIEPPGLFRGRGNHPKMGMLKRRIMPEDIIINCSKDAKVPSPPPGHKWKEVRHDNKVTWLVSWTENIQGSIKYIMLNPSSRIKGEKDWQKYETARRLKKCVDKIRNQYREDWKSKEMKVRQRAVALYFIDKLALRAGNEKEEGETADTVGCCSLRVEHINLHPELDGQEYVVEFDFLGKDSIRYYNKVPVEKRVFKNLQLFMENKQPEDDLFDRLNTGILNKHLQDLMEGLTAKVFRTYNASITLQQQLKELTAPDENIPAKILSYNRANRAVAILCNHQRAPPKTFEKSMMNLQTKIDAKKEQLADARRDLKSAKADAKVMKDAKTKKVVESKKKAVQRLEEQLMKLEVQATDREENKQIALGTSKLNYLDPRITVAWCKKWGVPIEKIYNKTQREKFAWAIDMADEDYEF
Sequence of recombinant human Tdp1 (Q9NUW8 whole entry): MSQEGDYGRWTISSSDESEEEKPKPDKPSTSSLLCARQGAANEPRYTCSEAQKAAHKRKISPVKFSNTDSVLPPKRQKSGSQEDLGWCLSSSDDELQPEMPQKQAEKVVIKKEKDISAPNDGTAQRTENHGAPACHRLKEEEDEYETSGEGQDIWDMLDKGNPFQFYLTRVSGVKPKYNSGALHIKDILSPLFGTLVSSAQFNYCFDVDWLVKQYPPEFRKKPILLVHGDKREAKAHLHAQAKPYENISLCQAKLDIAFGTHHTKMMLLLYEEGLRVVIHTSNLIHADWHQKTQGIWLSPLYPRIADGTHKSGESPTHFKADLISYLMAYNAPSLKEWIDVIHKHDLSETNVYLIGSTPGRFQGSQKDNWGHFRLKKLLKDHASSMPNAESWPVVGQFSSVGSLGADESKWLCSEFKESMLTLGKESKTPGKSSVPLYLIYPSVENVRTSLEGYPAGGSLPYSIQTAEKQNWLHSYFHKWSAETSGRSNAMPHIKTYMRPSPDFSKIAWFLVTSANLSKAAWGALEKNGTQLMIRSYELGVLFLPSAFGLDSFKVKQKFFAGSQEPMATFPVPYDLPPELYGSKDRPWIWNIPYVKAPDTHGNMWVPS

| Molecule | IC50 [1, 3] [µM] | Top1, compound-induced DNA cleavage due to Top1 inhibition (human recombinant Top1) | GI50 (HOP-62) [µM] | GI50 (HCT-116) [µM] | GI50 (UACC-62) [µM] | GI50 (SN12C) [µM] | GI50 (OVCAR-3) [µM] | GI50 (MDA-MB-435) [µM] | GI50 (DU-145) [µM] | further results |
| --- | --- | --- | --- | --- | --- | --- | --- | --- | --- | --- |
| COC(=O)C(=O)Nc1ccc2c3c(n(CCCN)c(=O)c2c1)-c1ccccc1C3=O [Compound 22 of (B), Methyl 2-[(6-(3-Aminopropyl)-5,11-dioxo-6,11-dihydro-5H-indeno[1,2-c]isoquinolin-3-yl)amino]-2-oxoacetate] | 1.86 ± 0.38 | 0 | – | – | – | – | – | – | – | – |
| COC(=O)CCCC(=O)Nc1ccc2c3c(n(CCCN)c(=O)c2c1)-c1ccccc1C3=O [Compound 25 of (B), Methyl 5-[(6-(3-Aminopropyl)-5,11-dioxo-6,11-dihydro-5H-indeno[1,2-c]isoquinolin-3-yl)amino]-5-oxopentanoate] | 1.09 | 0 | – | – | – | – | – | – | – | IC50 (recombinant human Tdp1; determined by duplicate): 37000 to 111000 nM |
| COC(=O)CCCCC(=O)Nc1ccc2c3c(n(CCCN)c(=O)c2c1)-c1ccccc1C3=O [Compound 26 of (B), Methyl 6-[(6-(3-Aminopropyl)-5,11-dioxo-6,11-dihydro-5H-indeno[1,2-c]isoquinolin-3-yl)amino]-6-oxohexanoate] | 2.34 | (+) | – | – | – | – | – | – | – | IC50 (recombinant human Tdp1; determined by duplicate): 37000 to 111000 nM |
| CCOC(=O)CNc1ccc2c3c(n(CCCN)c(=O)c2c1)-c1ccccc1C3=O [Compound 40 of (B), Ethyl 2-[(6-(3-Aminopropyl)-5,11-dioxo-6,11-dihydro-5H-indeno[1,2-c]isoquinolin-3-yl)amino]acetate Hydrochloride] | 1.69 | – | 0.93 | 0.44 | 2.25 | 1.75 | 3.12 | 3.05 | 1.68 | GI50 (SF-539): 8.91 µM |
| Cl.NCCCn1c2c(c3ccc(NCC(=O)O)cc3c1=O)C(=O)c1ccccc1-2 [Compound 43 of (B), 2-((6-(3-Aminopropyl)-5,11-dioxo-6,11-dihydro-5H-indeno[1,2-c]isoquinolin-3-yl)amino)acetic Acid Hydrochloride] | 0.87 ± 0.014 | 0 | 0.65 | 0.33 | 0.72 | 0.49 | 1.6 | 1.14 | 1.51 | IC50 (recombinant human Tdp1; determined by duplicate): 1000 to 12000 nM; GI50 (SF-539): 1.79 µM |
| COc1ccc2c(c1)-c1c(c3ccc([N+](=O)[O-])cc3c(=O)n1CCCN)C2=O.Cl [Compound 51 of (B), 6-(3-Aminopropyl)-5,6-dihydro-8-methoxy-3-nitro-5,11-dioxo-11H-indeno[1,2-c]isoquinoline Hydrochloride] | 0.17 ± 0.017 | ++ | – | 0.06 | – | 0.15 | 0.54 | 0.58 | 0.18 | IC50 (recombinant human Tdp1): 12000 to 37000 nM; GI50 (SF-539): 0.61 µM |
| COc1ccc2c(c1)-c1c(c3ccc([N+](=O)[O-])cc3c(=O)n1CCCn1ccnc1)C2=O [Compound 52 of (B), 6-(3-(1H-Imidazol-1-yl)propyl)-8-methoxy-3-nitro-5H-indeno[1,2-c]isoquinoline-5,11(6H)-dione] | – | +++ | < 0.01 | < 0.01 | < 0.01 | < 0.01 | 0.03 | 0.03 | < 0.01 | Tdp1 (semiquantitative IC50 scale) (recombinant human Tdp1): (+); IC50 [1, 4]: 0.02 ± 0.0006 µM; suppression of Top1-mediated DNA cleavage at high drug concentration (human recombinant Top1; high concentration of 100 μM): slight suppression |
| COc1ccc2c(c1)C(=O)c1c-2n(CCCN)c(=O)c2cc([N+](=O)[O-])ccc12 [Compound 54 of (B)] | 0.02 ± 0.0008 | – | < 0.01 | < 0.01 | < 0.01 | < 0.01 | – | – | – | – |
| NCCCn1c2c(c3ccc(N)cc3c1=O)C(=O)c1ccccc1-2 [Compound 62 of (B)] | 0.16 | – | 0.27 | 0.18 | 0.3 | 0.23 | 0.13 | 0.23 | 0.12 | GI50 (SF-539): 0.34 µM |
| O=C1c2ccccc2-c2c1c1ccc([N+](=O)[O-])cc1c(=O)n2CCCO [Compound 63 of (B)] | 0.89 ± 0.22 | – | – | 0.19 | 0.31 | 0.47 | 0.87 | 1.97 | 0.43 | – |
| COc1ccc2c(c1)C(=O)c1c-2n(CCCN)c(=O)c2cc(N)ccc12 [Compound 89 of (B), 3-Amino-6-(3-aminopropyl)-5,6-dihydro-9-methoxy-5,11-dioxo-11H-indeno[1,2-c]isoquinoline Dihydrochloride] | 0.04 | – | – | – | – | – | – | – | – | IC50 (recombinant human Tdp1; determined by duplicate): 1000 to 12000 nM |
| CS(=O)(=O)NCCCCCCCCCCCn1c2c(c3ccccc3c1=O)C(=O)c1ccccc1-2 [Compound 89, N-(11-(5,11-Dioxo-5H-indeno[1,2-c]isoquinolin-6(11H)-yl)undecyl)-methanesulfonamide] | – | ++ | – | – | – | – | – | – | – | GI50 ([1]; Homo sapiens): 40 nM |
| O=C(O)C(F)(F)F.O=C(O)C(F)(F)F.O=C1c2ccccc2-c2c1c1ccccc1c(=O)n2CCCNCCCNCCCn1c2c(c3ccccc3c1=O)C(=O)c1ccccc1-2 [Compound 145, Bis-1,3-{(5,6-dihydro-5,11-diketo-11H-indeno[1,2-c]isoquinoline)-6-propyl-amino}propane Bis(trifluoroacetate)] | – | – | – | – | – | – | – | – | – | GI50 ([1]; mean graph midpoint, NCI cancer cell line screen): 394 nM; Top1 inhibition (text of part A) (human recombinant Top1; semiquantitative scale relative to 1 μM camptothecin): ++++ |
| (6-Methyl-5,11-dioxo-6,11-dihydro-5H-indeno[1,2-c]isoquinolin-3-yl)-carbamic Acid [Compound 14 of (B)] | – | ++ | – | – | – | – | – | – | – | binding to the single-stranded DNA substrate [2]: did not bind |
| N-(6-(5,11-Dioxo-5H-indeno[1,2-c]isoquinolin-6(11H)hexyl)-methanesulfonamide [Compound 84] | – | – | – | – | – | – | – | – | – | IC50 [1, 4]: 0.25 ± 0.004 µM; Top1 inhibition (in words) (human recombinant Top1): active |
